Assay results published in PubChem BioAssay (NCI).
Several values for one entry are separate records, joined by “and”; a condition that tells them apart may be missing. Identical values can stand only once.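 Method: 48-hour compound exposure of cells in 96-well plates, five concentrations, linear interpolation of endpoints. GI50 is the concentration that inhibits growth by half. TGI denotes the concentration required for complete inhibition of growth.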

Experiments:
Assay in all cases: NCI tumour cell line growth inhibition, 48 h
RXF 393 renal = tested on: RXF 393 renal
SK-MEL-5 melanoma = tested on: SK-MEL-5 melanoma
SF-539 CNS = tested on: SF-539 CNS
NCI-H23 lung = tested on: NCI-H23 lung
MALME-3M melanoma = tested on: MALME-3M melanoma
NCI/ADR-RES ovarian = tested on: NCI/ADR-RES ovarian
TK-10 renal = tested on: TK-10 renal
CCRF-CEM leukemia = tested on: CCRF-CEM leukemia
UO-31 renal = tested on: UO-31 renal
A498 renal = tested on: A498 renal

Structure (SMILES) | GI50 (RXF 393 renal) [µM] | TGI (RXF 393 renal) [µM] | GI50 (SK-MEL-5 melanoma) [µM] | TGI (SK-MEL-5 melanoma) | GI50 (SF-539 CNS) [µM] | TGI (SF-539 CNS) | GI50 (NCI-H23 lung) [µM] | TGI (NCI-H23 lung) | GI50 (MALME-3M melanoma) [µM] | TGI (MALME-3M melanoma) [µM] | GI50 (NCI/ADR-RES ovarian) [µM] | TGI (NCI/ADR-RES ovarian) | GI50 (TK-10 renal) [µM] | TGI (TK-10 renal) | GI50 (CCRF-CEM leukemia) [µM] | TGI (CCRF-CEM leukemia) | GI50 (UO-31 renal) | TGI (UO-31 renal) | GI50 (A498 renal) [µM] | TGI (A498 renal) [µM]
COC(=O)Nc1nc2ccc(S(=O)(=O)c3ccc(NC(=O)Nc4cc(C(F)(F)F)ccc4F)cc3)cc2[nH]1 | > 25 | > 25 | > 25 | > 25 µM | > 25 | > 25 µM | > 25 | > 25 µM | > 25 | > 25 | > 25 | > 25 µM | > 25 | > 25 µM | > 25 | > 25 µM | > 25 µM | > 25 µM | > 25 | > 25
O=[N+]([O-])c1cc2c(ccc3occc32)o1 | 1.49 | 3.17 | 1.17 | 2.54 µM | 2.02 | 4.55 µM | 2.69 | 15.6 µM | 1.54 | 3.11 | 3.28 | 30.9 µM | 5.46 | 31.5 µM | 1.87 | 7.88 µM | 1.99 µM | 7.65 µM | 2.21 | 4.58
CN(C)c1ncnc2c1ccn2C1OC(CO)C(O)C1O (stereo not given) | 18.1 | > 100 | > 100 | > 100 µM | > 33.5 | > 100 µM | 5.45 | > 100 µM | 92.6 | > 100 | 1.3 | > 30.1 µM | 1.83 | > 100 µM | 0.234 | 1.76 µM | 1.37 µM | 13.7 µM | 3.49 | > 100
CCCCN(CCCC)CCC(O)c1cc2ccc(C(F)(F)F)cc2c2cc(C(F)(F)F)ccc12 (stereo not given) | 1.56 | 3.16 | 1.76 | 3.15 µM | 2.04 | 5.44 µM | 2.08 | 6.81 µM | 2.34 | 5.51 | 2.69 | 11.9 µM | 2.28 | 4.62 µM | 2.96 | 8.96 µM | 1.89 µM | 12.4 µM | 2.02 | 5.86
CCCC(CCC)C(=O)OCC1(CO)C/C(=C\c2ccc(C(F)(F)F)cc2)C(=O)O1 (stereo not given) | 16.6 | 37.8 | 0.948 | 19.6 µM | 11.8 | 24.2 µM | 15.8 | 32.1 µM | 16.4 | 31.7 | 15.3 | 32 µM | 5.62 | 20.3 µM | – | – | 12.2 µM | 26.5 µM | 0.105 | 10.3
CNc1ncc2cc(Oc3ccc(F)cc3F)c(=O)n(C)c2n1 | > 19.3 | > 25 | > 25 | > 25 µM | > 25 | > 25 µM | > 25 | > 25 µM | > 25 | > 25 | > 25 | > 25 µM | > 23.1 | > 25 µM | > 25 | > 25 µM | > 25 µM | > 25 µM | 11.9 | > 25
CCC(=O)c1c(C(F)(F)F)n([O-])c2ccccc2[n+]1=O | 1.67 | 10.2 | 0.961 | 2.64 µM | 2.81 | 10.2 µM | 1.1 | 4.37 µM | 1.69 | 6.16 | 1.36 | 13.3 µM | 2.81 | 14.5 µM | 0.621 | 10.5 µM | 0.829 µM | > 20.2 µM | 2.67 | 9.03
CC1=NN(C(=O)c2nn(-c3ccc(Cl)cc3)cc2O)C(=O)C1 | 2.18 | > 76.6 | 3.45 | > 36.9 µM | 1.9 | > 87.4 µM | 3.03 | > 100 µM | 9.29 | 99.5 | 1.83 | > 52.2 µM | 0.578 | > 100 µM | 0.608 | > 22 µM | 2.87 µM | > 100 µM | 2.92 | > 82
C=C1C(=O)O[C@H]2[C@H]1CC/C(CNC(=O)/C=C/c1ccc(Cl)cc1Cl)=C\CC[C@@]1(C)O[C@@H]21 | 0.403 | 1.63 | 1.63 | 3.02 µM | 1.53 | 3.17 µM | 1.4 | 3.2 µM | 1.29 | 2.7 | 2.57 | 12.8 µM | 1.55 | 2.9 µM | 0.304 | 1.19 µM | 1.03 µM | 2.28 µM | 1.47 | 3.87
COc1ccc2c(c1)C=C1CSCC3=Cc4cc(OC)ccc4OC13O2 | 0.216 | 0.645 | 0.41 | > 100 µM | 0.254 | 0.816 µM | 1.01 | > 100 µM | 0.473 | > 100 | 0.308 | > 100 µM | > 100 | > 100 µM | 0.328 | > 85.3 µM | 0.642 µM | > 100 µM | 0.23 | 0.766
Cc1c(C(N)=O)sc2c1c(=O)n(Cc1ccccc1)c1nnc(S(=O)(=O)CC(=O)Nc3ccc(Cl)cc3)n21 | 2.41 | 7.13 | 6.02 | 20.7 µM | 2.75 | 6.5 µM | 3.13 | 9.71 µM | 3.96 | 17.5 | 20.2 | 63.4 µM | 4.38 | 19.2 µM | 10.9 | 43.1 µM | 2.86 µM | 11.3 µM | 1.26 | 4.21
COc1cc2c(cc1OCCCCCn1c3ccccc3c3ccccc31)N=C[C@@H]1CCCN1C2=O | 4.34 | 16.4 | 1.73 | 3.15 µM | 1.85 | 3.37 µM | 2.69 | 7.04 µM | 2.2 | 4.72 | 2.14 | 4.75 µM | 2.25 | 4.84 µM | – | – | 1.52 µM | 2.93 µM | 1.77 | 3.69
CN(CCCN(C)CCC1CCCCC1)CCC1CCCCC1 | 0.946 | 3.54 | 1.32 | 2.61 µM | 1.7 | 3.53 µM | 8.7 | 22.1 µM | 1.39 | 3.03 | 6.6 | 20.1 µM | 1.62 | 3.55 µM | 3.03 | 21.7 µM | 1.58 µM | 14.4 µM | 5.14 | 13.8
CCN(CC)CCC(=O)O[C@H]1CC[C@H](CC(C)[C@H]2CC(=O)C(C)C=C(C)[C@H](OC(=O)CCN(CC)CC)C(OC)C(=O)[C@@H](C)CC(C)/C=C/C=C/C=C(C)C(OC)CC3CC[C@H](C)[C@](O)(O3)C(=O)C(=O)N3CCCCC3C(=O)O2)CC1OC (stereo not given in full) | – | 2.2 | 0.0401 | 1.85 µM and 2.16 µM | – | 1.99 µM and 1.81 µM | 1.28 | > 10 µM and 3.53 µM | 0.0579 | – | – | 8.13 µM and 6.58 µM | 1.4 | 6.12 µM and 4.25 µM | – | > 10 µM and 1.57 µM | 0.00067 µM and 0.00513 µM | 3.08 µM and 1.51 µM | – | 1.11
O=C1COCCN1c1ccc(NCc2cn(C(=O)c3ccc(Cl)cc3)c3ccccc23)cc1 | 3.09 | 18.3 | 4.1 | 16.3 µM | 8.49 | 26.2 µM | 3.79 | 52.1 µM | 7.96 | 24.9 | 5.77 | 55.8 µM | 0.148 | 2.18 µM | 5.62 | > 100 µM | 2.09 µM | 16.5 µM | 0.0306 | 0.142
CC(=O)n1c(-c2ccc(Cl)c(Cl)c2)cn(-c2ccc(Cl)cc2)c1=O | 11.4 | 27 | 32.2 | > 100 µM | 14.1 | 31.9 µM | – | – | 32 | > 100 | 35.2 | > 100 µM | 18.7 | 38 µM | 16.8 | 38 µM | 24.7 µM | 51.4 µM | 20.9 | 47
O=c1[nH]nc(-c2ccccc2)c2c(-c3ccccc3)onc12 | 1.19 | > 37.9 | 0.352 | – | 0.351 | 1.79 µM | 4.83 | > 100 µM | 0.751 | > 90 | 0.331 | > 100 µM | 0.999 | > 100 µM | 3.69 | > 100 µM | 0.592 µM | > 100 µM | 0.287 | 3.69
CNC(=O)c1cncc(/C=C/c2c(Cl)cccc2Cl)c1 | 8.89 | > 25 | 14.5 | > 25 µM | 9.43 | > 25 µM | > 25 | > 25 µM | 12.9 | > 25 | > 21.2 | > 25 µM | 12.9 | > 25 µM | > 25 | > 25 µM | 6.69 µM | > 25 µM | 7.44 | > 25
NCCSC(C[N+](=O)[O-])c1ccccc1Cl (stereo not given) | 2.27 | 11.1 | 3.03 | 10.1 µM | 2.42 | 5.49 µM | 3.37 | 12 µM | 16.3 | 36.7 | 9.85 | > 23.4 µM | 5.59 | 19 µM | 3.8 | > 86.7 µM | 3.46 µM | 10.1 µM | 2.3 | 4.69
CCc1c2c(nc3ccc(OCc4ccc(B5OC(C)(C)C(C)(C)O5)cc4)cc13)-c1cc3c(c(=O)n1C2)COC(=O)[C@]3(O)CC | 0.027 | 0.185 | 0.0372 | 0.338 µM | < 0.0109 | 0.131 µM | 0.0248 | 0.219 µM | 0.134 | 3.07 | 0.0622 | > 100 µM | 1.83 | > 100 µM | < 0.01 | > 100 µM | 0.0326 µM | 1.02 µM | 0.0406 | 0.376
Cc1ccc([N+](=O)[O-])c2c(NCCC[N+](C)(C)[O-])ccnc12 | – | > 100 | – | 24.6 µM | – | > 100 µM | – | > 100 µM | – | > 100 | – | > 100 µM | – | > 100 µM | – | > 100 µM | – | > 100 µM | – | 90.5
Clc1ccc(/C=C/c2nc(Cl)c(-c3ccc(Cl)cc3)c(Cl)n2)cc1 | – | > 100 | – | > 100 µM | – | > 100 µM | – | > 100 µM | – | > 100 | – | > 100 µM | – | > 100 µM | – | 84.8 µM | – | 43.2 µM | – | > 100
COc1ccc2c(c1OC)C(=O)O[C@@H]2[C@H]1c2c(c(Br)c3c(c2OC)OCO3)CCN1C | 20.3 | > 100 | 4.12 | > 100 µM | 7.09 | > 100 µM | > 100 | > 100 µM | – | – | 9.22 | > 100 µM | 14.4 | 94.5 µM | – | – | > 100 µM | > 100 µM | 27.6 | > 100
O=C1NC(SCc2ccc(F)cc2)=N/C1=C/c1cccc(OCc2ccc(Cl)cc2)c1 | 9.22 | 48.9 | > 100 | > 100 µM | 4.87 | 72.2 µM | 16.9 | > 100 µM | 26.5 | > 100 | 22.2 | > 100 µM | 6.07 | 87.8 µM | 64.2 | > 100 µM | – | – | 3.53 | 26.2
COC1C(O)C(C)OC(O[C@@H]2C[C@H]3CC[C@@H]4[C@H](CC[C@]5(C)[C@@H](C6=CC(=O)OC6)CC[C@]45O)[C@@]3(C)[C@H](O)C2)C1O (stereo not given in full) | – | 0.0363 | – | 0.122 µM | – | 0.0249 µM | – | 0.0231 µM | – | 0.119 | – | 0.183 µM | – | 0.896 µM | – | > 100 µM | – | – | – | 0.0871
